Measurements taken from patent US10344025B2, “GLS1 inhibitors for treating disease” (Board of Regents, The University of Texas System, priority 2014, dated 2019).

Experiments:
[1] = system: A549 cells; experiment: Proliferation Assay (A549 viability, Cell Titer Fluor, 72 hours); type: cell-based; details: Homo sapiens, A549, 72 h
Outline: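 Cell Titer Fluor fluorescence after 72 h compound treatment (0.5% DMSO, 37 °C, 5% CO2) of A549 cells plated 24 h earlier at 1000/well. Four-parameter logistic fitting gave IC50.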

[2] = target: purified recombinant human GAC (GLS1) (Homo sapiens (Human), UniProt O94925); experiment: GLS1 Enzymatic Activity Assay (dual-coupled enzymatic assay, resorufin/Amplex UltraRed readout); type: biochemical;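 further: glutamate from GAC coupled via glutamate oxidase and peroxidase to resorufin, read as fluorescence (ex 530, em 590 nm) kinetically or at 20 min, four-parameter logistic IC50 fit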
purified recombinant human GAC (GLS1), sequence (O94925 other isoform, or with tags, fused parts or gaps): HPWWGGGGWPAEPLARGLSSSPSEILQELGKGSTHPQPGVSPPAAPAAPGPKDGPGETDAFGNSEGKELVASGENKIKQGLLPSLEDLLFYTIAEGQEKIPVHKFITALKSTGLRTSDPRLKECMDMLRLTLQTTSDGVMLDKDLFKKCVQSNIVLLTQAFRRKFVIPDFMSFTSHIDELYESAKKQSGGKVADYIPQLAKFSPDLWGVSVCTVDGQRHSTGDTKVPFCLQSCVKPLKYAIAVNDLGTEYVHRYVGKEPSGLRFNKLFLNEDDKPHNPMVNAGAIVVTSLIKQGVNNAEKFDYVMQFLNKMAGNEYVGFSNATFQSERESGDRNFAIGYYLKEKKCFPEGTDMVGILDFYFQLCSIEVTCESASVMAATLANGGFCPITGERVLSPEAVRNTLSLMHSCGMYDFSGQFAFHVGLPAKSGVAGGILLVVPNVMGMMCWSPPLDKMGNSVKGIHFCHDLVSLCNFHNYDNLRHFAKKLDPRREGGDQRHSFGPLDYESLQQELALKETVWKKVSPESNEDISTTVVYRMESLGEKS

Row | Structure (SMILES) | EC50 [1] | IC50 [2]
1 | O=C(CN1CC(F)(F)C1)Nc1cn(CCCCn2cc(C(=O)NCc3cc(OC(F)(F)F)ccc3F)nn2)nn1 [Example 353, 1-(4-{4-[2-(3,3-difluoroazetidin-1-yl)acetamido]-1H-1,2,3-triazol-1-yl}butyl)-N-{[2-fluoro-5-(trifluoromethoxy)phenyl]methyl}-1H-1,2,3-triazole-4-carboxamide] | 100 to 500 nM | < 100 nM
2 | O=C(Cc1ccc(OC(F)(F)F)cc1F)Nc1cn(CCCCn2cc(C(=O)NCc3ccccn3)nn2)nn1 [Example 367, 1-[4-(4-{2-[2-fluoro-4-(trifluoromethoxy)phenyl]acetamido}-1H-1,2,3-triazol-1-yl)butyl]-N-(pyridin-2-ylmethyl)-1H-1,2,3-triazole-4-carboxamide] | 100 to 500 nM | < 100 nM
3 | O=C(CN1CC(F)C1)Nc1cn(CC(F)CCn2cc(C(=O)NCc3cc(C(F)(F)F)ccn3)nn2)nn1 (stereo not shown) [Example 401, 1-(3-fluoro-4-{4-[2-(3-fluoroazetidin-1-yl)acetamido]-1H-1,2,3-triazol-1-yl}butyl)-N-{[4-(trifluoromethyl)pyridin-2-yl]methyl}-1H-1,2,3-triazole-4-carboxamide] | 500 to 5000 nM | 100 to 500 nM
4 | NC(=O)c1nnc(CCC(F)Cn2cc(C(=O)NCc3cccc(OC(F)(F)F)c3)nn2)s1 (stereo not shown) [Example 521, 5-{3-fluoro-4-[4-({[3-(trifluoromethoxy)phenyl]methyl}carbamoyl)-1H-1,2,3-triazol-1-yl]butyl}-1,3,4-thiadiazole-2-carboxamide] | 100 to 500 nM | 100 to 500 nM
5 | O=C(Cc1cccnc1)Nc1cn(CCCCn2cc(C(=O)NCc3cccc(OC(F)(F)F)c3)nn2)nn1 [Example 294, 1-(4-{4-[2-(pyridin-3-yl)acetamido]-1H-1,2,3-triazol-1-yl}butyl)-N-{[3-(trifluoromethoxy)phenyl]methyl}-1H-1,2,3-triazole-4-carboxamide] | 100 to 500 nM | < 100 nM
6 | O=C(NCc1cccc(OC(F)(F)F)c1)c1cn(CCCCn2cc(C(=O)NC[C@H](O)c3ccccc3)nn2)nn1 [Example 139, N-[(2R)-2-hydroxy-2-phenylethyl]-1-{4-[4-({[3-(trifluoromethoxy)phenyl]methyl}carbamoyl)-1H-1,2,3-triazol-1-yl]butyl}-1H-1,2,3-triazole-4-carboxamide] | 100 to 500 nM | 100 to 500 nM
7 | O=C(NCc1cccc(OC(F)(F)F)c1)c1cn(CCCCc2nnc(C(=O)NCC3COC3)s2)nn1 [Example 50, N-(oxetan-3-ylmethyl)-5-{4-[4-({[3-(trifluoromethoxy)phenyl]methyl}carbamoyl)-1H-1,2,3-triazol-1-yl]butyl}-1,3,4-thiadiazole-2-carboxamide] | 500 to 5000 nM | 100 to 500 nM
8 | Cc1ccc(CNC(=O)c2cn(CC(F)CCn3cc(C(=O)NCc4cc(OC(F)(F)F)ccc4F)nn3)nn2)cn1 (stereo not shown) [Example 368, 1-{2-fluoro-4-[4-({[2-fluoro-5-(trifluoromethoxy)phenyl]methyl}carbamoyl)-1H-1,2,3-triazol-1-yl]butyl}-N-[(6-methylpyridin-3-yl)methyl]-1H-1,2,3-triazole-4-carboxamide] | < 100 nM | < 100 nM
9 | O=C(Cc1cccc(OC(F)(F)F)c1)Nc1nnc(CCC(F)Cn2cc(C(=O)NCc3cccc(C(F)(F)F)n3)nn2)s1 (stereo not shown) [Example 494, 1-[2-fluoro-4-(5-{2-[3-(trifluoromethoxy)phenyl]acetamido}-1,3,4-thiadiazol-2-yl)butyl]-N-{[6-(trifluoromethyl)pyridin-2-yl]methyl}-1H-1,2,3-triazole-4-carboxamide] | < 100 nM | < 100 nM
10 | O=C(CN1CC(F)C1)Nc1cn(CC(F)CCn2cc(C(=O)NCc3ccccn3)nn2)nn1 (stereo not shown) [Example 389, 1-(3-fluoro-4-{4-[2-(3-fluoroazetidin-1-yl)acetamido]-1H-1,2,3-triazol-1-yl}butyl)-N-(pyridin-2-ylmethyl)-1H-1,2,3-triazole-4-carboxamide] | > 5000 nM | 500 to 5000 nM
11 | CNC(=O)c1cn(CCCCc2ccc(NC(=O)CC3CCCC3)nn2)nn1 [Example 548, 1-{4-[6-(2-cyclopentylacetamido)pyridazin-3-yl]butyl}-N-methyl-1H-1,2,3-triazole-4-carboxamide] | 500 to 5000 nM | 100 to 500 nM
12 | O=C(NCc1ncccc1F)c1cn(CCC(F)Cn2cc(C(=O)NCc3cccc(OC(F)(F)F)c3)nn2)nn1 (stereo not shown) [Example 440, 1-{3-fluoro-4-[4-({[3-(trifluoromethoxy)phenyl]methyl}carbamoyl)-1H-1,2,3-triazol-1-yl]butyl}-N-[(3-fluoropyridin-2-yl)methyl]-1H-1,2,3-triazole-4-carboxamide] | 100 to 500 nM | < 100 nM
13 | O=C(Cc1cccc(OC(F)(F)F)c1)Nc1nnc(CCC(F)Cn2cc(C(=O)NC3CC3)nn2)s1 (stereo not shown) [Example 534, N-cyclopropyl-1-[2-fluoro-4-(5-{2-[3-(trifluoromethoxy)phenyl]acetamido}-1,3,4-thiadiazol-2-yl)butyl]-1H-1,2,3-triazole-4-carboxamide] | 100 to 500 nM | < 100 nM
14 | CNC(=O)c1cn(CCCCc2ccc(NC(=O)Cc3cccc(Cl)c3F)nn2)nn1 [Example 180, 1-(4-{6-[2-(3-chloro-2-fluorophenyl)acetamido]pyridazin-3-yl}butyl)-N-methyl-1H-1,2,3-triazole-4-carboxamide] | 100 to 500 nM | < 100 nM
15 | CNC(=O)c1cn(CCCCc2ccc(NC(=O)CN3CCN(c4ccc(OC(F)(F)F)cc4)CC3)nn2)nn1 [Example 232, N-methyl-1-(4-(6-(2-(4-(4-(trifluoromethoxy)phenyl)piperazin-1-yl)acetamido)pyridazin-3-yl)butyl)-1H-1,2,3-triazole-4-carboxamide] | < 100 nM | < 100 nM

Results, then the compound that gave them:

Row | EC50 [1] | IC50 [2] | Structure (SMILES)
16 | < 100 nM | < 100 nM | Cc1ccc(CNC(=O)c2cn(CC(F)CCn3cc(NC(=O)Cc4cccc(OC(F)(F)F)c4)nn3)nn2)cn1 (stereo not shown) [Example 396, 1-[2-fluoro-4-(4-{2-[3-(trifluoromethoxy)phenyl]acetamido}-1H-1,2,3-triazol-1-yl)butyl]-N-[(6-methylpyridin-3-yl)methyl]-1H-1,2,3-triazole-4-carboxamide]
17 | < 100 nM | < 100 nM | CNC(=O)c1cn(CCCCc2ccc(NC(=O)CN3CCN(c4cccc(OC(F)(F)F)c4)CC3)nn2)nn1 [Example 228, N-methyl-1-(4-(6-(2-(4-(3-(trifluoromethoxy)phenyl)piperazin-1-yl)acetamido)pyridazin-3-yl)butyl)-1H-1,2,3-triazole-4-carboxamide]
18 | 100 to 500 nM | 100 to 500 nM | CNC(=O)c1cn(CCCCc2ccc(NC(=O)Cc3cccc(OCCOC)c3)nn2)nn1 [Example 173, 1-[4-(6-{2-[3-(2-methoxyethoxy)phenyl]acetamido}pyridazin-3-yl)butyl]-N-methyl-1H-1,2,3-triazole-4-carboxamide]
19 | 100 to 500 nM | 100 to 500 nM | CNC(=O)c1nnc(CCC(F)Cn2cc(C(=O)NCc3cncc(C(F)(F)F)c3)nn2)s1 (stereo not shown) [Example 507, 5-{3-fluoro-4-[4-({[5-(trifluoromethyl)pyridin-3-yl]methyl}carbamoyl)-1H-1,2,3-triazol-1-yl]butyl}-N-methyl-1,3,4-thiadiazole-2-carboxamide]
20 | < 100 nM | < 100 nM | COc1ccc(CNC(=O)c2cn(CC(F)CCc3nnc(NC(=O)Cc4cc(OC(F)(F)F)ccc4F)s3)nn2)cn1 (stereo not shown) [Example 219, 1-(2-fluoro-4-(5-(2-(2-fluoro-5-(trifluoromethoxy)phenyl)acetamido)-1,3,4-thiadiazol-2-yl)butyl)-N-((6-methoxypyridin-3-yl)methyl)-1H-1,2,3-triazole-4-carboxamide]
21 | 100 to 500 nM | < 100 nM | O=C(NCc1cccc(OC(F)(F)F)c1)c1cn(CC(F)CCc2nnc(NC(=O)C3CC3)s2)nn1 (stereo not shown) [Example 568, 1-(4-(5-(cyclopropanecarboxamido)-1,3,4-thiadiazol-2-yl)-2-fluorobutyl)-N-(3-(trifluoromethoxy)benzyl)-1H-1,2,3-triazole-4-carboxamide]
22 | < 100 nM | < 100 nM | O=C(NCc1cccc(OC(F)(F)F)c1)c1cn(CCC(F)Cn2cc(C(=O)NCc3cncc(C(F)(F)F)c3)nn2)nn1 (stereo not shown) [Example 477, 1-{2-fluoro-4-[4-({[3-(trifluoromethoxy)phenyl]methyl}carbamoyl)-1H-1,2,3-triazol-1-yl]butyl}-N-{[5-(trifluoromethyl)pyridin-3-yl]methyl}-1H-1,2,3-triazole-4-carboxamide]
23 | < 100 nM | < 100 nM | O=C(Cc1cccc(OC(F)(F)F)c1)Nc1nnc(CCC(F)Cn2cc(C(=O)NCc3cncc(C(F)(F)F)c3)nn2)s1 (stereo not shown) [Example 496, 1-[2-fluoro-4-(5-{2-[3-(trifluoromethoxy)phenyl]acetamido}-1,3,4-thiadiazol-2-yl)butyl]-N-{[5-(trifluoromethyl)pyridin-3-yl]methyl}-1H-1,2,3-triazole-4-carboxamide]
24 | < 100 nM | < 100 nM | O=C(Cc1cccc(OC(F)(F)F)c1)Nc1nnc(CCCCn2cc(C(=O)NCc3ccccc3)nn2)s1 [Example 16, N-benzyl-[4-(5-{2-[3-(trifluoromethoxy)phenyl]acetamido}-1,3,4-thiadiazol-2-yl)butyl]-1H-1,2,3-triazole-4-carboxamide]
25 | 100 to 500 nM | < 100 nM | Cc1ccc(CNC(=O)c2cn(CCCCn3cc(NC(=O)Cc4cc(Cl)ccc4F)nn3)nn2)cn1 [Example 388, 1-(4-{4-[2-(5-chloro-2-fluorophenyl)acetamido]-1H-1,2,3-triazol-1-yl}butyl)-N-[(6-methylpyridin-3-yl)methyl]-1H-1,2,3-triazole-4-carboxamide]
26 | < 100 nM | < 100 nM | O=C(NCc1cccc(OC(F)(F)F)c1)c1cn(CCCCc2nnc(C(=O)NCc3cc(C(F)(F)F)ccn3)s2)nn1 [Example 75, 5-{4-[4-({[3-(trifluoromethoxy)phenyl]methyl}carbamoyl)-1H-1,2,3-triazol-1-yl]butyl}-N-{[4-(trifluoromethyl)pyridin-2-yl]methyl}-1,3,4-thiadiazole-2-carboxamide]
